The results in this text go back to ChEMBL document CHEMBL5046288, “Design, Synthesis, and Bioevaluation of 2-Aminopteridin-7(8H)-one Derivatives as Novel Potent Adenosine A2A Receptor Antagonists for Cancer Immunotherapy” (J Med Chem, 2022).

For data set [1], the target named is T1, Adenosine receptor A2a (Homo sapiens, UniProt P29274). The experiment in a line: Antagonist activity at human A2aR expressed in HEK293 cells assessed as reduction in cAMP production incubated for 60 mins by ultra LANCE cAMP detection assay. It is filed as functional, cell-based.
Data set [2] is filed under the species Homo sapiens. Put plainly: Selectivity ratio of IC50 for human A2BR to IC50 for human A2aR.
In data set [3] the test system is Jurkat. Put plainly: Upregulation of NECA-suppressed IL-2 mRNA level in Ion/PMA-activated human Jurkat T cells at 10 uM by Q-PCR analysis. Type of data set: functional, cell-based.
The species entered for data set [4] is Homo sapiens. Put plainly: Selectivity ratio of IC50 for human A3R to IC50 for human A2aR.
For data set [5], the species on record is Homo sapiens. Put plainly: Selectivity ratio of IC50 for human A1R to IC50 for human A2aR.
Data set [6] concerns MC-38. The experiment in a line: Cytotoxicity against mouse MC38 cells assessed as reduction in cell viability incubated for 24 hrs by MTS assay. Type of data set: toxicity, cell-based. The note with it: mc-38, 24 h.
The target of data set [7] is T1, Adenosine receptor A2a. The experiment in a line: Antagonist activity at human A2aR expressed in HEK293 cells assessed as reduction in NECA-induced cAMP production incubated for 20 mins in presence of 20 nM NECA by GloSensor cAMP detection assay. It is filed as functional, cell-based. A general note: cAMP levels reflect the balance of adenylyl cyclase and phosphodiesterase activity.

The target of data set [8] is T1, Adenosine receptor A2a. Put plainly: Antagonist activity at human A2aR expressed in HEK293 cells assessed as reduction in NECA-induced cAMP production incubated for 20 mins in presence of 1 uM NECA by ultra LANCE cAMP detection assay. It is filed as functional, cell-based.
The test system of data set [9] is HCT-116. Put plainly: Cytotoxicity against human HCT116 cells assessed as reduction in cell viability incubated for 24 hrs by MTS assay. The note with it: hct-116, 24 h. Type of data set: toxicity, cell-based.
Data set [10] deals with T1, Adenosine receptor A2a. The experiment in a line: Antagonist activity at human A2aR expressed in HEK293 cells assessed as reduction in NECA-induced cAMP production incubated for 20 mins in presence of 40 nM NECA by ultra LANCE cAMP detection assay. Type of data set: functional, cell-based.
The test system of data set [11] is HCT-116. Put plainly: Cytotoxicity against human HCT-116 cells co-cultured with Ion/PMA-activated human Jurkat T cells assessed as reversal of NECA-induced suppression of cytotoxic function of Jurkat T cell by measuring survival rate at E:T ratio of 6:1 at 10 uM measured after 48 hrs by crystal violet staining based colony assay. It is filed as functional.
Data set [12] is described as follows: Upregulation of NECA-suppressed IL-2 protein level in Ion/PMA-activated human Jurkat T cells at 10 uM by Western blotting analysis. It is filed as functional. For orientation: In western blotting, separated proteins are transferred to a membrane and probed.
The nature of data set [13]: Metabolic stability in mouse liver microsomes assessed as half life at […] measured up to 60 mins in presence of NADPH by HPLC-MS/MS analysis. It is filed as ADME, Microsome. (In general: Microsomes from liver hold many membrane-bound enzymes, among them those of drug oxidation.)

The source made the active and inactive calls.

T1 sequence (P29274 whole entry): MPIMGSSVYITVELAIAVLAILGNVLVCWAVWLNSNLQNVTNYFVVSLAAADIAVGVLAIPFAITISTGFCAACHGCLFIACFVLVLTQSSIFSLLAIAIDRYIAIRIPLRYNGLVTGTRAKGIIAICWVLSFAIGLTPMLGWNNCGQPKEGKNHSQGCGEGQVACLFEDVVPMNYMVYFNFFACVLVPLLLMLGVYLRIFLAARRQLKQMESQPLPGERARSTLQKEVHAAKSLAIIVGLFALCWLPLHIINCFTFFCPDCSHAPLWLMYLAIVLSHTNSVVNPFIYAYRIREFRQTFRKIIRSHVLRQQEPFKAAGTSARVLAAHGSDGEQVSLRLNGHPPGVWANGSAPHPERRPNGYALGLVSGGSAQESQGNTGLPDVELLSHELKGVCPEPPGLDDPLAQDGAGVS

Take `COc1ccc(N2C[C@H](C)N(CCn3c(=O)cnc4c(-c5ccc(C)o5)nc(N)nc43)C[C@H]2C)cc1`: the IC50 (as a rule, the concentration needed to halve the response being measured) in data set [1] stood at 2020 nM.
On the same count and under the same terms, the value for `COc1ccc(N2CCCN(CCn3c(=O)cnc4c(-c5ccc(C)o5)nc(N)nc43)CC2)cc1` was 716 nM; that for `Cc1ccc(-c2nc(N)nc3c2[nH]c(=O)n3Cc2ccccc2)o1` was 1030 nM.
On to `Cc1ccc(-c2nc(N)nc3c2ncc(=O)n3CCCCc2ccccc2)o1`, for which the half-maximal inhibitory concentration (IC50) in data set [1] was 980 nM.
Still for that read-out and setting: the value for `Cc1ccc(-c2nc(N)nc3c2ncc(=O)n3Cc2ccccc2)o1` was 482 nM; that for `Cc1ccc(-c2nc(N)nc3c2NC(=O)CN3Cc2ccccc2)o1` was > 10000 nM; that for `COc1ccc(N2CC3CCC(C2)N3CCn2c(=O)cnc3c(-c4ccc(C)o4)nc(N)nc32)cc1` was 555 nM.
The same measure, in the same setting: the result for `COc1cccc(Cn2c(=O)cnc3c(-c4ccc(C)o4)nc(N)nc32)c1` reads 476 nM; that for `Cc1ccc(-c2nc(N)nc3c2ncc(=O)n3CCN2CCN(c3ccc(F)cc3)CC2)o1`, 58.8 nM.
On the same count and under the same terms, the result for `Cc1ccc(-c2nc(N)nc3c2ncc(=O)n3CC2CCN(c3ccccc3)CC2)o1` reads > 10000 nM.
Take `Cc1ccc(-c2nc(N)nc3c2ncc(=O)n3CCN2CCN(c3ccc(Oc4ccccc4)cc3)CC2)o1`: the half-inhibitory concentration (IC50) in data set [1] stood at 605 nM.
For the molecule `COCCOc1ccc(N2CCN(CCn3c(=O)cnc4c(-c5ccc(C)o5)nc(N)nc43)CC2)cc1`, the IC50 in [1] was 23.8 nM.
Same read-out and setting: the value for `Cc1ccc(-c2nc(N)nc3c2ncc(=O)n3CCCc2ccccc2)o1` was 712 nM; that for `COc1ccc(Cn2c(=O)cnc3c(-c4ccc(C)o4)nc(N)nc32)cc1` was > 10000 nM.
On to `COc1ccc(N2CCN(CCn3c(=O)cnc4c(-c5ccc(C)o5)nc(N)nc43)[C@@H](C)C2)c(F)c1`, for which the Ratio IC50 in data set [2], in data set [4] and in data set [5] was > 1000 in each case. Moreover, the outcome in [3] was inactive. Besides, the IC50 came out at 8.3 nM in data set [1], 6.6 nM in data set [7], 180 nM in [8] and 8.3 nM in data set [10]. For the same molecule, the Activity result in data set [6] is “Non-Toxic”; in data set [9], “Non-Toxic”; in [11], 48.6%. Moreover, the “fold change (FC)” value in data set [12] came out at 3.77. Besides, the half-life (in general, the time needed for the level to fall by half in the phase considered) in data set [13] turned out to be 38.5 min.
Turning to `Cc1ccc(-c2nc(N)nc3c2ncc(=O)n3Cc2cccc(C(F)(F)F)c2)o1`, the half-inhibitory concentration (IC50) in [1] is > 10000 nM.
As to `COc1ccc(N(C)C2CN(CCn3c(=O)cnc4c(-c5ccc(C)o5)nc(N)nc43)C2)cc1`, in data set [1], the IC50 is > 10000 nM.
On the same count and under the same terms, the value for `COc1ccc(N2CCN(CCn3c(=O)cnc4c(-c5ccc(C)o5)nc(N)nc43)C[C@H]2C)cc1` was 37.5 nM; that for `Cc1ccc(-c2nc(N)nc3c2ncc(=O)n3Cc2ccco2)o1` was 2170 nM.
Same read-out and setting: the value for `Cc1ccc(-c2nc(N)nc3c2ncc(=O)n3CCN2CCN(c3ccccc3F)CC2)o1` was 11.7 nM.
Still for that read-out and setting: the result for `Cc1ccc(-c2nc(N)nc3c2ncc(=O)n3CCN2CCN(c3ccccc3OC(F)(F)F)CC2)o1` reads > 10000 nM; that for `COc1ccc(N(C)C2CCN(CCn3c(=O)cnc4c(-c5ccc(C)o5)nc(N)nc43)C2)cc1` (centres undefined), > 10000 nM.
With `COc1ccc(N2CCN(CCn3c(=O)cnc4c(-c5ccc(C)o5)nc(N)nc43)CC2)c(F)c1`, the IC50 in data set [1] amounted to 4.9 nM. Moreover, the half-life in [13] stood at 5.1 min.
Regarding `Cc1ccc(-c2nc(N)nc3c2ncc(=O)n3CCN2CCN(C)CC2)o1`, the IC50 in [1] is > 10000 nM.
On to `COCCOc1ccc(N2CCN(CCn3c(=O)cnc4c(-c5ccc(C)o5)nc(N)nc43)CC2)c(F)c1F`, for which the IC50 in [1] came out at 9.3 nM.
In the case of `Cc1ccc(-c2nc(N)nc3c2ncc(=O)n3CCN2CCN(c3ccc(OC(F)F)cc3)CC2)o1`, the half-maximal inhibitory concentration (IC50) in [1] came to 63.7 nM.
For the molecule `Cc1ccc(-c2nc(N)nc3c2ncc(=O)n3CC2CCCCC2)o1`, the half-inhibitory concentration (IC50) in data set [1] stood at 1880 nM.
Still for that read-out and setting: the value for `Cc1ccc(-c2nc(N)nc3c2ncc(=O)n3CCN2CCN(c3ccc(C(F)(F)F)cc3)CC2)o1` was 176 nM; that for `Cc1ccc(-c2nc(N)nc3c2ncc(=O)n3CCN2CCN(C3CCCC3)CC2)o1` was > 10000 nM.
For the molecule `Cc1ccc(-c2nc(N)nc3c2n(C)c(=O)n3Cc2ccccc2)o1`, in data set [1], the half-inhibitory concentration (IC50) is 2830 nM.
`Cc1ccc(-c2nc(N)nc3c2ncc(=O)n3CC2CC2)o1`: in data set [1], the IC50 was 1010 nM.
On the same count and under the same terms, the value for `COc1ccc(N2CCC(N(C)CCn3c(=O)cnc4c(-c5ccc(C)o5)nc(N)nc43)C2)cc1` (centres undefined) was > 10000 nM; that for `Cc1ccc(-c2nc(N)nc3c2ncc(=O)n3CCN2CCN(c3ccc(OC(F)F)cc3F)CC2)o1` was 21 nM; that for `COc1ccc(N2CCN(CCn3c(=O)cnc4c(-c5ccc(C)o5)nc(N)nc43)CC2)nc1` was 213 nM.
Still for that read-out and setting: the value for `Cc1ccc(-c2nc(N)nc3c2ncc(=O)n3CCN2CCN(c3ccc(F)cc3F)CC2)o1` was 8.5 nM; that for `Cc1ccc(-c2nc(N)nc3c2ncc(=O)n3CCN2CCN(c3ccc(OC(F)(F)F)cc3)CC2)o1` was 120 nM; that for `Cc1ccc(-c2nc(N)nc3c2ncc(=O)n3CCN2CCN(c3cccc(OC(F)(F)F)c3)CC2)o1` was > 10000 nM.
With `Cc1ccc(-c2nc(N)nc3c2ncc(=O)n3CCN2CCN(c3cccc(F)c3)CC2)o1`, the half-maximal inhibitory concentration (IC50) in data set [1] was determined as 57.5 nM.
In the case of `COc1ccccc1N1CCN(CCn2c(=O)cnc3c(-c4ccc(C)o4)nc(N)nc32)CC1`, in data set [1], the concentration for half-maximal inhibition (IC50) is 3810 nM.
Same read-out and setting: the value for `COc1cnc(N2CCN(CCn3c(=O)cnc4c(-c5ccc(C)o5)nc(N)nc43)CC2)c(F)c1` was 5.5 nM; that for `COc1ccc(N2CCN(CCn3c(=O)cnc4c(-c5ccc(C)o5)nc(N)nc43)C[C@@H]2C)cc1` was 224 nM; that for `COc1ccc(N2CCN(CCn3c(=O)cnc4c(-c5ccc(C)o5)nc(N)nc43)CC2)cn1` was 29.5 nM.
Consider `Cc1ccc(-c2nc(N)nc3c2ncc(=O)n3CCN2CCN(c3ccc(F)cc3Cl)CC2)o1`, for which the IC50 in [1] was 86.5 nM.
Turning to `Cc1ccc(-c2nc(N)nc3c2CCN(Cc2ccccc2)C3)o1`, the IC50 in data set [1] is > 10000 nM.
On to `COc1ccc(N2C[C@@H]3C[C@H]2CN3CCn2c(=O)cnc3c(-c4ccc(C)o4)nc(N)nc32)cc1`, for which, in data set [1], the 50% inhibitory concentration (IC50) was > 10000 nM.
With `Cc1ccc(-c2nc(N)nc3c2ncc(=O)n3CCN2CCC(c3ccccc3)CC2)o1`, the half-maximal inhibitory concentration (IC50) in data set [1] was found to be 388 nM.
